Assay: xn = mol fraction of the nth substance listed

CCCCCC[N+]1(C)CCCC1.O=S(=O)([N-]S(=O)(=O)C(F)(F)F)C(F)(F)F + Cc1ccccc1
100 kPa
Settings	viscosity [mPa·s]
293.15 K, x2 = 0.3938	37.27
293.15 K, x2 = 0.7993	4.124
303.15 K, x2 = 0.5961	11.17
308.15 K, x2 = 0.29	30.33
308.15 K, x2 = 0.7993	3.15
313.15 K, x2 = 0	51

CCCC[N+](CCCC)(CCCC)Cc1ccccc1.[Cl-] + NC(=O)CC[C@H](N)C(=O)O + O
electrical conductivity [S/m], 100 kPa, frequency 0.001 MHz
Settings	293.15 K	298.15 K	303.15 K	308.15 K	313.15 K
x2 = 0.0001802, x1 = 1.802e-05	0.0331	0.0352	0.0382	0.041	0.0452
x2 = 0.0001803, x1 = 5.405e-05	0.0419	0.0441	0.0463	0.0496	0.0536
x2 = 0.0001804, x1 = 9.008e-05	0.0513	0.0542	0.0582	0.0612	0.0654
x2 = 0.0004504, x1 = 1.801e-05	0.0408	0.0453	0.0486	0.0523	0.0553
x2 = 0.0004507, x1 = 5.403e-05	0.0492	0.0543	0.057	0.0597	0.0642
x2 = 0.000451, x1 = 9.005e-05	0.0592	0.0641	0.067	0.069	0.0728
x2 = 0.0007205, x1 = 1.801e-05	0.0479	0.0557	0.0582	0.0614	0.0662
x2 = 0.0007209, x1 = 5.402e-05	0.0619	0.0683	0.0702	0.0724	0.0764
x2 = 0.0007213, x1 = 9.003e-05	0.0692	0.0768	0.0774	0.0796	0.0867
x2 = 0.0009904, x1 = 1.8e-05	0.0551	0.064	0.0692	0.071	0.0769
x2 = 0.000991, x1 = 5.4e-05	0.0713	0.0784	0.0819	0.0821	0.0806
x2 = 0.0009916, x1 = 9e-05	0.0768	0.0871	0.0876	0.0906	0.1
x2 = 0.00126, x1 = 1.8e-05	0.0646	0.0756	0.079	0.0819	0.0865
x2 = 0.001261, x1 = 5.399e-05	0.0809	0.0902	0.0923	0.0943	0.103
x2 = 0.001262, x1 = 8.998e-05	0.0911	0.098	0.0989	0.101	0.113
x2 = 0.00153, x1 = 1.799e-05	0.0733	0.0847	0.0896	0.0903	0.0994
x2 = 0.001531, x1 = 5.397e-05	0.0868	0.0975	0.103	0.105	0.116
x2 = 0.001532, x1 = 8.995e-05	0.099	0.106	0.108	0.109	0.119

viscosity [mPa·s], 100 kPa
Settings	293.15 K	298.15 K	303.15 K	308.15 K	313.15 K
x2 = 0.0001802, x1 = 1.802e-05	0.961	0.921	0.884	–	–
x2 = 0.0001803, x1 = 5.405e-05	0.969	0.929	0.888	–	–
x2 = 0.0001804, x1 = 9.008e-05	0.98	0.939	0.9	–	–
x2 = 0.0004504, x1 = 1.801e-05	0.969	0.93	0.893	0.858	0.803
x2 = 0.0004507, x1 = 5.403e-05	0.978	0.938	0.896	0.863	0.808
x2 = 0.000451, x1 = 9.005e-05	0.99	0.949	0.909	0.869	0.817
x2 = 0.0007205, x1 = 1.801e-05	0.977	0.939	0.902	0.867	0.812
x2 = 0.0007209, x1 = 5.402e-05	0.987	0.947	0.906	0.872	0.818
x2 = 0.0007213, x1 = 9.003e-05	1	0.96	0.919	0.88	0.827
x2 = 0.0009904, x1 = 1.8e-05	0.985	0.948	0.912	0.877	0.823
x2 = 0.000991, x1 = 5.4e-05	0.996	0.957	0.917	0.882	0.827
x2 = 0.0009916, x1 = 9e-05	1.01	0.97	0.929	0.891	0.838
x2 = 0.00126, x1 = 1.8e-05	0.994	0.956	0.921	0.887	0.833
x2 = 0.001261, x1 = 5.399e-05	1.005	0.967	0.926	0.894	0.838
x2 = 0.001262, x1 = 8.998e-05	1.021	0.98	0.939	0.901	0.849
x2 = 0.00153, x1 = 1.799e-05	1.002	0.965	0.929	0.897	0.843
x2 = 0.001531, x1 = 5.397e-05	1.014	0.977	0.936	0.904	0.849
x2 = 0.001532, x1 = 8.995e-05	1.029	0.99	0.95	0.912	0.86

C[N+](C)(CCO)CCOCCO.[Cl-] + NC(N)=O
100 kPa, x1 = 0.5
Settings	viscosity [mPa·s]
283.15 K	19700
288.15 K	10900
293.15 K	5978
298.15 K	3500
303.15 K	2189
308.15 K	1389
313.15 K	903
318.15 K	616
323.15 K	424
328.15 K	305
333.15 K	221
338.15 K	166
343.15 K	126
348.15 K	97.9
353.15 K	77.4

CCCCCCCCCCCCCC[n+]1ccccc1.O=C([O-])C(O)c1ccccc1 + NCC(=O)NCC(=O)O + O
electrical conductivity [S/m], 101 kPa
Settings	293.15 K	298.15 K	303.15 K	308.15 K	313.15 K
x1 = 5.26e-06, x2 = 0.0009002	0.00276	0.00323	0.00375	0.00433	0.005
x1 = 6.01e-06, x2 = 0.001799	0.00408	0.00487	0.00569	0.0066	0.0077
x1 = 6.85e-06, x2 = 0	0.00248	0.00278	0.00309	0.0034	0.0037
x1 = 9.97e-06, x2 = 0.0009002	0.00403	0.00465	0.00533	0.0061	0.0069
x1 = 1.185e-05, x2 = 0.001799	0.00561	0.00655	0.0076	0.0088	0.01
x1 = 1.424e-05, x2 = 0	0.00472	0.00529	0.00587	0.0065	0.0071
x1 = 1.486e-05, x2 = 0.0009002	0.0054	0.00621	0.0071	0.008	0.009
x1 = 1.713e-05, x2 = 0.001799	0.00703	0.0082	0.0094	0.0107	0.0122
x1 = 2.084e-05, x2 = 0.0009002	0.00697	0.008	0.0091	0.0102	0.0114
x1 = 2.126e-05, x2 = 0	0.00671	0.0076	0.0084	0.0093	0.0101
x1 = 2.26e-05, x2 = 0.001799	0.0085	0.0098	0.0112	0.0128	0.0144
x1 = 2.537e-05, x2 = 0.0009002	0.0082	0.0094	0.0106	0.012	0.0134
x1 = 2.788e-05, x2 = 0.001799	0.0098	0.0113	0.0129	0.0146	0.0165
x1 = 2.811e-05, x2 = 0	0.0086	0.0097	0.0108	0.0122	0.0131
x1 = 3.117e-05, x2 = 0.0009002	0.0097	0.0111	0.0125	0.014	0.0157
x1 = 3.335e-05, x2 = 0.001799	0.0111	0.0127	0.0145	0.0164	0.0184
x1 = 3.46e-05, x2 = 0	0.0103	0.0116	0.0129	0.0145	0.0157
x1 = 3.679e-05, x2 = 0.0009002	0.011	0.0125	0.0141	0.0159	0.0178
x1 = 3.864e-05, x2 = 0.001799	0.0122	0.014	0.0159	0.018	0.0203
x1 = 4.108e-05, x2 = 0	0.0117	0.0131	0.0146	0.0161	0.0179
x1 = 4.386e-05, x2 = 0.0009001	0.0123	0.014	0.0157	0.0177	0.0199
x1 = 4.574e-05, x2 = 0.001799	0.0134	0.0153	0.0174	0.0197	0.0222
x1 = 4.811e-05, x2 = 0	0.0129	0.0144	0.0161	0.0179	0.0198
x1 = 5.11e-05, x2 = 0.0009001	0.0133	0.0151	0.017	0.0192	0.0215
x1 = 5.321e-05, x2 = 0.001799	0.0145	0.0165	0.0187	0.0213	0.024
x1 = 5.388e-05, x2 = 0	0.0137	0.0154	0.0172	0.0191	0.0211
x1 = 5.781e-05, x2 = 0.0009001	0.0143	0.0162	0.0182	0.0205	0.023
x1 = 5.982e-05, x2 = 0	0.0145	0.0163	0.0182	0.0202	0.0224
x1 = 6.069e-05, x2 = 0.001799	0.0155	0.0177	0.02	0.0227	0.0254
x1 = 6.433e-05, x2 = 0.0009001	0.0152	0.0172	0.0193	0.0218	0.0244
x1 = 6.559e-05, x2 = 0	0.0153	0.0172	0.0192	0.0213	0.0236
x1 = 6.816e-05, x2 = 0.001799	0.0165	0.0187	0.0213	0.024	0.027
x1 = 7.081e-05, x2 = 0	0.016	0.018	0.02	0.0223	0.0246
x1 = 7.104e-05, x2 = 0.0009001	0.0161	0.0182	0.0204	0.023	0.0258
x1 = 7.454e-05, x2 = 0.001799	0.0173	0.0197	0.0222	0.0252	0.0283
x1 = 7.604e-05, x2 = 0	0.0167	0.0187	0.0209	0.0232	0.0258
x1 = 7.81e-05, x2 = 0.0009001	0.0171	0.0193	0.0217	0.0244	0.0273
x1 = 8.072e-05, x2 = 0	0.0173	0.0194	0.0217	0.0241	0.0266
x1 = 8.128e-05, x2 = 0.001799	0.0182	0.0207	0.0233	0.0265	0.0298
